Experimental data as given in patent publication US6737383B1, “Herbicidal oxadiazolidines” (priority 1999, dated 2004).

Legend:
bamyardgrass = assay: Test B flood test barnyardgrass; type: in vivo, Echinochloa crus-galli
How it was run: (§1)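 Read-out is a visual response score from 0 (no effect) to 10 (complete control), assigned by comparison with untreated controls. Treatment was applied at the 2-leaf stage, and plants stayed in the greenhouse for twelve to sixteen days before scoring.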

velvetleaf = assay: Test B pre/postemergence velvetleaf; type: in vivo, Abutilon theophrasti
How it was run: (§2)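 Response is a visual 0-to-10 score relative to untreated plants, where 0 means no effect and 10 means complete control, taken twelve to sixteen days after application. Treatments went onto soil at planting and onto foliage of 1- to 4-leaf plants, using a surfactant-containing non-phytotoxic solvent.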

smallflower flatsedge = assay: Test B flood test smallflower flatsedge; type: in vivo, Cyperus difformis
How it was run: as §1

morningglory = assay: Test B pre/postemergence morningglory; type: in vivo, Ipomoea hederacea
How it was run: as §2

rape = assay: Test B pre/postemergence rape; type: in vivo, Brassica napus
How it was run: as §2

rice = assay: Test B flood test rice; type: in vivo, Oryza sativa
How it was run: as §1

sugar beet = assay: Test B pre/postemergence sugar beet; type: in vivo, Beta vulgaris
How it was run: as §2

bedstraw = assay: Test B pre/postemergence bedstraw; type: in vivo, Galium aparine
How it was run: as §2

blackgrass = assay: Test B pre/postemergence blackgrass; type: in vivo, Alopecurus myosuroides
How it was run: as §2

duck salad = assay: Test B flood test duck salad; type: in vivo, Heteranthera limosa
How it was run: as §1

pigweed = assay: Test B pre/postemergence pigweed; type: in vivo, Amaranthus retroflexus
How it was run: as §2

purple nutsedge = assay: Test B pre/postemergence purple nutsedge; type: in vivo, Cyperus rotundus
How it was run: as §2

corn = assay: Test B pre/postemergence corn; type: in vivo, Zea mays
How it was run: as §2

surinam grass = assay: Test B pre/postemergence surinam grass; type: in vivo, Brachiaria decumbens
How it was run: as §2

soybean = assay: Test B pre/postemergence soybean; type: in vivo, Glycine max
How it was run: as §2

giant foxtail = assay: Test B pre/postemergence giant foxtail; type: in vivo, Setaria faberii
How it was run: as §2

[1] = Rate 62 g/ha, headed Pre-emergence (flood test species), scale 0 to 10 (0 no effect, 10 complete control)
[2] = Rate 125 g/ha, Pre-emergence, flood test species, scale 0 to 10 where 0 is no effect and 10 is complete control
[3] = Rate 250 g/ha, Pre-emergence, flood-test species, scale 0 to 10, 0 is no effect, 10 is complete control
[4] = Rate 500 g/ha, headed Pre-emergence (flood test species), scale 0 to 10 (0 no effect, 10 complete control)
[5] = Preemergence, Rate 62 g/ha, scale of 0 to 10 where 0 is no effect and 10 is complete control
[6] = Preemergence, Rate 250 g/ha, scale 0 to 10, 0 is no effect, 10 is complete control
[7] = Preemergence, Rate 500 g/ha, scale of 0 to 10 where 0 is no effect and 10 is complete control
[8] = Rate 62 g/ha, Postemergence, scale of 0 to 10 where 0 is no effect and 10 is complete control
[9] = Rate 125 g/ha, Postemergence, scale 0 to 10
[10] = Preemergence, Rate 125 g/ha, 0 is no effect, 10 is complete control
[11] = Rate 500 g/ha, Postemergence, scale 0 to 10

SMILES: C=CCn1c(=O)on(C(=O)N(c2ccc(F)cc2)C2CCC2)c1=O [Compound 194]
- Barnyardgrass plant response rating (bamyardgrass; [1]): 0
- Barnyardgrass plant response rating (bamyardgrass; [2]): 0
- Barnyardgrass plant response rating (bamyardgrass; [3]): 0
- Plant response rating, Barnyardgrass (bamyardgrass; [4]): 0
- Velvetleaf plant response rating (velvetleaf; [5]): 0
- Velvetleaf plant response rating (velvetleaf; [6]): 0
- Plant response rating, Velvetleaf (velvetleaf; [7]): 3
- Velvetleaf plant response rating (velvetleaf; [8]): 0
- Velvetleaf plant response rating (velvetleaf; [9]): 0
- Plant response rating (0 to 10; 0 is no effect, 10 is complete control), Velvetleaf (velvetleaf; Rate 250 g/ha, Postemergence): 0
- S. Flatsedge plant response rating (smallflower flatsedge; [1]): 0
- S. Flatsedge plant response rating (smallflower flatsedge; [2]): 0
- S. Flatsedge plant response rating (smallflower flatsedge; [3]): 0
- S. Flatsedge plant response rating (smallflower flatsedge; Rate 500 g/ha, Pre-emergence, flood test species, scale 0 to 10 (0 no effect, 10 complete control)): 0
- Morningglory plant response rating (morningglory; [5]): 0
- Morningglory plant response rating (0 to 10 scale) (morningglory; [10]): 0
- Morningglory plant response rating (morningglory; [6]): 0
- Plant response rating, Morningglory (morningglory; [7]): 0
- Morningglory plant response rating (morningglory; [8]): 0
- Morningglory plant response rating (morningglory; [9]): 0
- Plant response rating (0 to 10; 0 is no effect, 10 is complete control), Morningglory (morningglory; Rate 250 g/ha, Postemergence): 1
- Morningglory plant response rating (morningglory; [11]): 2
- Rape plant response rating (rape; [5]): 0
- Rape plant response rating (0 to 10 scale) (rape; [10]): 0
- Rape plant response rating (rape; [6]): 2
- Plant response rating, Rape (rape; [7]): 7
- Rape plant response rating (rape; [8]): 0
- Rape plant response rating (rape; [9]): 0
- Plant response rating (0 to 10; 0 is no effect, 10 is complete control), Rape (rape; Rate 250 g/ha, Postemergence): 0
- Rape plant response rating (rape; [11]): 2
- Rice plant response rating (rice; [1]): 0
- Rice plant response rating (rice; [2]): 0
- Rice plant response rating (rice; [3]): 0
- Plant response rating, Rice (rice; [4]): 0
- Sugarbeets plant response rating (sugar beet; [5]): 0
- Sugarbeets plant response rating (0 to 10 scale) (sugar beet; [10]): 0
- Sugarbeets plant response rating (sugar beet; [6]): 2
- Plant response rating, Sugarbeets (sugar beet; [7]): 3
- Sugarbeets plant response rating (sugar beet; [8]): 0
- Sugarbeets plant response rating (sugar beet; [9]): 0
- Plant response rating (0 to 10; 0 is no effect, 10 is complete control), Sugarbeets (sugar beet; Rate 250 g/ha, Postemergence): 0
- Sugarbeets plant response rating (sugar beet; [11]): 0
- Bedstraw plant response rating (bedstraw; [5]): 0
- Bedstraw plant response rating (0 to 10 scale) (bedstraw; [10]): 0
- Bedstraw plant response rating (bedstraw; [6]): 0
- Plant response rating, Bedstraw (bedstraw; [7]): 10
- Bedstraw plant response rating (bedstraw; [8]): 0
- Bedstraw plant response rating (bedstraw; [9]): 0
- Plant response rating (0 to 10; 0 is no effect, 10 is complete control), Bedstraw (bedstraw; Rate 250 g/ha, Postemergence): 0
- Bedstraw plant response rating (bedstraw; [11]): 0
- Blackgrass plant response rating (blackgrass; [5]): 0
- Blackgrass plant response rating (0 to 10 scale) (blackgrass; [10]): 2
- Blackgrass plant response rating (blackgrass; [6]): 3
- Plant response rating, Blackgrass (blackgrass; [7]): 8
- Blackgrass plant response rating (blackgrass; [8]): 0
- Blackgrass plant response rating (blackgrass; [9]): 0
- Plant response rating (0 to 10; 0 is no effect, 10 is complete control), Blackgrass (blackgrass; Rate 250 g/ha, Postemergence): 2
- Blackgrass plant response rating (blackgrass; [11]): 3
- Ducksalad plant response rating (duck salad; [1]): 0
- Ducksalad plant response rating (duck salad; [2]): 0
- Ducksalad plant response rating (duck salad; [3]): 0
- Plant response rating, Ducksalad (duck salad; [4]): 0
- Redroot pigweed plant response rating (pigweed; [5]): 5
- Redroot pigweed plant response rating (0 to 10 scale) (pigweed; [10]): 7
- Redroot pigweed plant response rating (pigweed; [6]): 8
- Plant response rating, Redroot pigweed (pigweed; [7]): 10
- Redroot pigweed plant response rating (pigweed; [8]): 0
- Redroot pigweed plant response rating (pigweed; [9]): 0
- Plant response rating (0 to 10; 0 is no effect, 10 is complete control), Redroot pigweed (pigweed; Rate 250 g/ha, Postemergence): 0
- Redroot pigweed plant response rating (pigweed; [11]): 0
- Nutsedge plant response rating (purple nutsedge; [5]): 0
- Nutsedge plant response rating (purple nutsedge; [6]): 0
- Plant response rating, Nutsedge (purple nutsedge; [7]): 0
- Nutsedge plant response rating (purple nutsedge; [8]): 0
- Nutsedge plant response rating (purple nutsedge; [9]): 0
- Plant response rating (0 to 10; 0 is no effect, 10 is complete control), Nutsedge (purple nutsedge; Rate 250 g/ha, Postemergence): 0
- Nutsedge plant response rating (purple nutsedge; [11]): 0
- Corn plant response rating (corn; [5]): 0
- Corn plant response rating (0 to 10 scale) (corn; [10]): 0
- Corn plant response rating (corn; [6]): 0
- Plant response rating, Corn (corn; [7]): 0
- Corn plant response rating (corn; [8]): 0
- Corn plant response rating (corn; [9]): 0
- Plant response rating (0 to 10; 0 is no effect, 10 is complete control), Corn (corn; Rate 250 g/ha, Postemergence): 0
- Corn plant response rating (corn; [11]): 0
- B. signalgrass plant response rating (surinam grass; [5]): 0
- B. signalgrass plant response rating (0 to 10 scale) (surinam grass; [10]): 0
- B. signalgrass plant response rating (surinam grass; [6]): 0
- Plant response rating, B. signalgrass (surinam grass; [7]): 3
- B. signalgrass plant response rating (surinam grass; [8]): 0
- B. signalgrass plant response rating (surinam grass; Rate 125 g/ha, Postemergence, scale 0 (no effect) to 10 (complete control)): 0
- Plant response rating, B. signalgrass (surinam grass; Rate 250 g/ha, Postemergence, scale 0 to 10, 0 is no effect, 10 is complete control): 0
- B. signalgrass plant response rating (surinam grass; Rate 500 g/ha, Postemergence, scale 0 to 10, 0 no effect, 10 complete control): 3
- Soybean plant response rating (soybean; [5]): 0
- Soybean plant response rating (0 to 10 scale) (soybean; [10]): 0
- Soybean plant response rating (soybean; [6]): 0
- Plant response rating, Soybean (soybean; [7]): 0
- Soybean plant response rating (soybean; [8]): 0
- Soybean plant response rating (soybean; [9]): 0
- Plant response rating (0 to 10; 0 is no effect, 10 is complete control), Soybean (soybean; Rate 250 g/ha, Postemergence): 0
- Soybean plant response rating (soybean; [11]): 1
- Giant foxtail plant response rating (giant foxtail; [5]): 3
- Giant foxtail plant response rating (0 to 10 scale) (giant foxtail; [10]): 8
- Giant foxtail plant response rating (giant foxtail; [6]): 8
- Plant response rating, Giant foxtail (giant foxtail; [7]): 9
- Giant foxtail plant response rating (giant foxtail; [8]): 0
- Giant foxtail plant response rating (giant foxtail; [9]): 1
- Plant response rating (0 to 10; 0 is no effect, 10 is complete control), Giant foxtail (giant foxtail; Rate 250 g/ha, Postemergence): 2
- Giant foxtail plant response rating (giant foxtail; [11]): 2
